Source: patent CN114306288A, “一种卡巴拉汀长效经皮吸收贴剂及其制备方法” (priority 2022, dated 2022)

Test: In vitro transdermal permeation test (Franz horizontal two-chamber diffusion cell, pig ear skin)
Format: in vitro ADME
Settings: Examples 33-38, compared with no enhancer; 0.1 g enhancer, 1 mmol rivastigmine salicylate ionic liquid in 2 g adhesive (Example 10); result in words

| SMILES | promotion of rivastigmine cumulative permeation amount by transdermal absorption enhancer |
| --- | --- |
| CCCCCCCC/C=C\CCCCCCCC(=O)O [油酸] | 没有显著促进 |
| CC1CCC(C(C)C)C(O)C1 (centres unmarked) [薄荷醇] | 没有显著促进 |
